Where two headings read alike, the source gives them in different places. Starred links: 1 amine or outer side, 2 acyl side, 3 side chain; linkers in the order of their positions; H or OH if unused. Positions of bridges follow the written chain, without caps; N, C: chain ends. Non-standard residues stand in square brackets, D forms with d. Residues, ends and D or L forms follow the SMILES beside them. Primed or numbered codes have the meaning given here. *: point of attachment. PL3 = (R)-N-acetyl-2-(2'-propenyl)proline (alpha-allyl proline), stapling residue, C=CC[C@@]1(C(=O)*)CCCN1C(C)=O; PL3″ = (R)-2-(2'-propenyl)proline (alpha-allyl proline), N-acetylated, C=CC[C@@]1(C(=O)*)CCCN1C(C)=O; X1 = O=C([C@]1(CC=[*:3])CCCN1[*:1])[*:2]; Ala(cPr) = N[C@@H](CC1CC1)C(=O)O; S5 = C=CCCC[C@](C)(N)C(=O)O
Tests used:
[1] = for % Retention: PAMPA
Description: (§1) The synthesized peptides were first analyzed with a PAMPA assay. […] The PAMPA plate system is composed of two compartments, donor and acceptor, which are separated by a phospholipid-infused membrane. The amount of compound transferred from the acceptor well into the donor well over a period of incubation time is used to determine the passive permeability of a compound.
(§2) The two plates are separated by a membrane infused with phospholipids. […] The amount of compound transferred from one well to the other is usually quantified by reverse-phase HPLC-mass spectrometry.
(§3) Briefly, all PAMPA assays were performed using the commercially available PAMPA plate system from Corning, which uses a proprietary membrane composed of structured phospholipids. […] To prevent nonspecific peptide loss to the plates, the acceptor wells of the Corning PAMPA plates were blocked overnight with 5% nonfat milk with 0.1% Triton X-100 in Dulbecco's phosphate buffer saline (DPBS) at pH=7.4, followed by extensive washing prior to assays. The donor wells and membrane itself were not exposed to the milk/Triton solution. […] The PAMPA experiments described herein were performed using plates from Corning Lot #9112010, Lot #9112011 and Lot #7317005 (Corning Inc., Corning, New York, USA).
(§4) To set up PAMPA assays, the PAMPA plate system was equilibrated at room temperature for at least an hour before setting up the assay. The acceptor plate preincubated with milk blocking solution was washed with water, followed by DPBS buffer. 300 μL of 5% DMSO in DPBS at pH=7.4 was added to the pre-blocked acceptor plate, and 200 μL of 10M compounds made with 5% DMSO in DPBS at pH=7.4 was added to the donor plate. The donor plate with a lid was then carefully inserted into the acceptor plate with no bubbles formed at the interface of donor and acceptor plates. The PAMPA assay plate was covered with aluminum foil and placed in a 37° C. incubator for 5 hours. 10 M input solution of all compounds was diluted 20-fold to a final acetonitrile concentration of 50% before analyzing by reverse-phase HPLC and Q-Exactive plus mass spectrometer. At the end of 5 hours, PAMPA donor and acceptor plates were separated and diluted 20-fold and 2-fold respectively to a final acetonitrile concentration of 50%. The diluted solutions of PAMPA donor and acceptor plates were analyzed by reverse-phase HPLC and Q-Exactive plus mass spectrometer.
(§5) Pe measures the passive permeability of each compound tested in the PAMPA assay, whereas % retention measures the amount of compound retained in solution at the end of the assay compared to the input sample.

[2] = CHI Log D measurement (chromatographic hydrophobicity index); details: pH 7.4
in vitro = experiment: in vitro; set-up: dose or concentration left out as unconfirmed; details: PAMPA, pH 7.4, PAMPA Pe
Description: as §1, §2, §3, §4, §5

ERβ LBD = molecular target: T1, ERβ LBD (Homo sapiens, UniProt Q92731); experiment: Competition fluorescence polarization (FP) binding assay with FITC-ERL4 probe; details: read-out: EC50
T1 construct: pET28a+ vector containing ERβ LBD (residues from 261 to 500) along with an N-terminal His6-yBBr-TEV tag; His6 (N); yBBr (N); TEV cleavage site (N); made in house; host or cells: E. coli BL21(DE3) pLysS
Description: In addition to the PAMPA assay, to study the affinity of the first-generation ProLock™ stapled peptides to the Estrogen receptor p ligand-binding domain (ERβ LBD), a fluorescence polarization (FP) binding assay in competition format was used in the presence of the endogenous ERβ LBD ligand estradiol. Competition Fluorescence Polarization (FP) assay was performed on the peptides to determine their half-maximal effective concentration (EC50). To do this, FITC labeled ERL4 peptide (FITC-βAla-His-Pro-Leu-Leu-Nle-Arg-Leu-Leu-Leu-Ser-Pro-CONH2) was synthesized to be used as a fluorescence probe based on existing literature (Fuchs et al., Journal of the American Chemical Society 2013, 135 (11), 4364-4371). Direct FP was performed in black 384-well plates (Corning). The final volume of each assay well was 40 μL with constant concentration of FITC labeled ERL4 peptide (10 nM) and variable concentrations of ERβ LBD protein.
ERβ LBD expression and purification was performed as follows. BL21(DE3) pLysS E. coli cells were transformed with a pET28a+ vector containing ERβ LBD (residues from 261 to 500) along with an N-terminal His6-yBBr-TEV tag. An overnight culture in 10 mL of TB media containing 50 μg/mL kanamycin was prepared from a single bacterial colony. The overnight culture was subsequently added to 1 liter of autoclaved TB media containing 50 μg/mL kanamycin and shaken at 37° C. until an OD of 0.6-0.8 was reached. IPTG was added to the culture and left shaking for 6 hours. Bacterial culture was pelleted and resuspended in lysis buffer. Resuspended bacterial culture was incubated at 0° C. for 10 minutes before sonication at 65% amplitude with 10-sec cycles using a Branson Sonifier. The lysate was then cleared by centrifugation at 8000×g for 20 min. […] The expected molecular weight of the ERβ LBD protein is 30.8 KDa, which molecular weight was confirmed by SDS PAGE analysis. Purified ERβ LBD was concentrated to 90 μM and was stored at −80° C. buffer.
Competition FP assays were also employed. These were performed in black 384-well plates (Corning). The final volume of each assay well was 80 μL containing constant concentrations of estradiol (1 μM) and FITC labeled ERL4 (10 nM). The ERβ LBD concentration was held constant (200 nM) while varying the concentration of ProLock stapled peptides (3-fold dilution from 10 μM). Upon addition of samples to each well, the plate was centrifuged for 10 seconds at 3000 rpm and incubated at 4° C. for 1 hour. FP measurements were performed at room temperature with excitation and emission wavelengths at 485 and 535 nm using a Clariostar microplate reader (BMG Labtech). Each plate had high and low polarization samples, which are used to normalize the assay data. The competition FP results were analyzed by Prism 7 (GraphPad). The non-linear regression analysis of the data was used to determine the half-maximal effective concentration (EC50) of ProLock stapled peptides. […] The normalized FP values shown in FIG. 6 are mean±S.E.M of at least four independent replicates.

[3] = molecular target: T2, Estrogen receptor β ligand-binding domain (ERβ LBD), residues 261 to 500, with N-terminal His6-yBBr-TEV tag (UniProt Q92731 261-500); experiment: competition fluorescence polarization against FITC-ERL4 probe, 200 nM ERβ LBD, 1 µM estradiol
T2 construct: range 261-500; Expressed in E. coli BL21(DE3) pLysS from pET28a+, purified by Ni-NTA and SEC; Assays were run in the presence of estradiol; also called ER LBD; not shown: N-terminal His6-yBBr-TEV tag

[4] = molecular target: T2, Estrogen receptor β ligand-binding …; experiment: competition fluorescence polarization; 200 nM ERβ LBD, 10 nM FITC-ERL4 probe, 1 µM estradiol
Description: Competition FP assays were also employed. These were performed in black 384-well plates (Corning). The final volume of each assay well was 80 μL containing constant concentrations of estradiol (1 μM) and FITC labeled ERL4 (10 nM). […] Upon addition of samples to each well, the plate was centrifuged for 10 seconds at 3000 rpm and incubated at 4° C. for 1 hour. […] Each plate had high and low polarization samples, which are used to normalize the assay data. The competition FP results were analyzed by Prism 7 (GraphPad).

[5] = reverse-phase HPLC, Phenomenex Gemini C-18 column
[6] = Table 4, binding to ER LBD, estradiol 1 μM, FITC-ERL4 10 nM, ERβ LBD 200 nM, mean ± S.E.M, at least four replicates
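Wherever % Retention is given: Phospholipid-membrane PAMPA, donor and acceptor in DPBS pH 7.4 with 5% DMSO, 37 °C for 5 h, compound in each well quantified by reverse-phase HPLC-MS.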
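Wherever PAMPA Pe (text) is given: Phospholipid-membrane PAMPA, donor and acceptor in DPBS pH 7.4 with 5% DMSO, 37 °C for 5 h, compound in each well quantified by reverse-phase HPLC-MS.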
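Wherever PAMPA Pe is given: Phospholipid-membrane PAMPA, donor and acceptor in DPBS pH 7.4 with 5% DMSO, 37 °C for 5 h, compound in each well quantified by reverse-phase HPLC-MS.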
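Wherever Papp is given: Phospholipid-membrane PAMPA, donor and acceptor in DPBS pH 7.4 with 5% DMSO, 37 °C for 5 h, compound in each well quantified by reverse-phase HPLC-MS.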

T2 sequence (Q92731 261-500): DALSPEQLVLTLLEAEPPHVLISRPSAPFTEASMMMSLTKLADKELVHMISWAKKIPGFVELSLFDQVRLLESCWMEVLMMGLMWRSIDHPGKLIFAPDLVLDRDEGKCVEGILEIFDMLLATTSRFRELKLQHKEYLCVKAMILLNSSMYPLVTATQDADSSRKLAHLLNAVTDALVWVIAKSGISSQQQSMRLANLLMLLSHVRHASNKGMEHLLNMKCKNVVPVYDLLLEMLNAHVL

## CNC(=O)[C@@H](NC(=O)[C@H](CC(C)C)NC(=O)[C@H](CC(C)C)NC(=O)[C@H](Cc1ccc(O)cc1)NC(=O)[C@]1(C)CCCC=CC[C@]2(CCCN2C(C)=O)C(=O)N[C@@H](CC(C)C)C(=O)N[C@@H](CC(C)C)C(=O)N1)[C@@H](C)O [PLL5-10, Ac-PL3-Leu-Leu-S5-Tyr-Leu-Leu-Thr-NHMe] (Ac-[X1]LL[S5]YLLT-NHMe; staple 1-4)
[1]
  % Retention: 34 ± 0%
[2]; [5]
  chromatographic logD: 3.8
In vitro
  Papp at 5 h: ≤ 0.1 ×10⁻⁶ cm/s
ERβ LBD; [6]
  EC50: 1500 ± 200 nM

## CNC(=O)[C@H](Cc1c[nH]cn1)NC(=O)[C@H](CC(C)C)NC(=O)[C@H](CC(C)C)NC(=O)[C@H](Cc1ccc(O)cc1)NC(=O)[C@]1(C)CCCC=CC[C@]2(CCCN2C(C)=O)C(=O)N[C@@H](CC(C)C)C(=O)N[C@@H](CC(C)C)C(=O)N1 (single isomer, unassigned) [PLL5-11, Ac-PL3-Leu-Leu-S5-Tyr-Leu-Leu-His-NHMe]
[1]
  % Retention: 89 ± 1%
[2]
  chromatographic logD: 3.2
In vitro
  Papp at 5 h: ≤ 0.1 ×10⁻⁶ cm/s
ERβ LBD; [6]
  EC50: > 10000 nM

## CC[C@H](C)[C@@H]1NC(=O)[C@]2(CC=CCCC[C@@](C)(C(=O)N[C@@H](CCCNC(=N)N)C(=O)N[C@@H](CC(C)C)C(=O)N[C@@H](CC(C)C)C(=O)N[C@@H](CCC(N)=O)C(=O)N[C@@H](Cc3ccc(O)cc3)C(=O)NC)NC(=O)[C@H](CC(C)C)NC1=O)CCCN2C(C)=O [PLL4-1, Ac-PL3-Ile-Leu-S5-Arg-Leu-Leu-Gln-Tyr-NHMe] (Ac-[X1]IL[S5]RLLQY-NHMe; staple 1-4)
[1]
  % Retention: 75 ± 2%
[2]; [5]
  chromatographic logD: 2.9
In vitro
  Papp at 5 h: ≤ 0.1 ×10⁻⁶ cm/s
ERβ LBD; binding towards the ERβ LBD
  EC50: 200 nM

## CNC(=O)[C@H](CC(=O)O)NC(=O)[C@H](CCC(N)=O)NC(=O)[C@H](CC(C)C)NC(=O)[C@H](CC(C)C)NC(=O)[C@H](CCCNC(=N)N)NC(=O)[C@]1(C)CCCC=CC[C@]2(CCCN2C(C)=O)C(=O)N[C@@H](CC2CC2)C(=O)N[C@@H](CC(C)C)C(=O)N1 [PLL7-5, Ac-PL3-Cpa-Leu-S5-Arg-Leu-Leu-Gln-Asp-NHMe] (Ac-[X1][Ala(cPr)]L[S5]RLLQD-NHMe; staple 1-4)
[1]
  % Retention: 109 ± 2%
[2]; [5]
  chromatographic logD: 2
In vitro
  Papp at 5 h: 0.8 ± 0.2 ×10⁻⁶ cm/s
ERβ LBD; [6]
  EC50: 4100 ± 300 nM

## CNC(=O)[C@H](CC(=O)O)NC(=O)[C@H](CCC(N)=O)NC(=O)[C@H](CC(C)C)NC(=O)[C@H](CC(C)C)NC(=O)[C@H](Cc1ccc(O)cc1)NC(=O)[C@]1(C)CCCC=CC[C@]2(CCCN2C(C)=O)C(=O)N[C@@H](CC2CC2)C(=O)N[C@@H](CC(C)C)C(=O)N1 [PLL7-7, Ac-PL3-Cpa-Leu-S5-Tyr-Leu-Leu-Gln-Asp-NHMe] (Ac-[X1][Ala(cPr)]L[S5]YLLQD-NHMe; staple 1-4)
[1]
  PAMPA Pe: 1.0 ± 0.1 (×10^−6) cm/sec
  PAMPA Pe (text): exceeding 1 ×10^−6 cm/sec
  % Retention: 108 ± 3%
[2]; [5]
  chromatographic logD: 2
In vitro
  Papp at 5 h: 1 ± 0.1 ×10⁻⁶ cm/s
ERβ LBD; [6]
  EC50: 900 ± 100 nM
ERβ LBD; binding towards the ERβ LBD
  EC50: 800 to 1300 nM

## CNC(=O)[C@H](CC(=O)O)NC(=O)[C@H](CC(=O)O)NC(=O)[C@H](CC(C)C)NC(=O)[C@H](CC(C)C)NC(=O)[C@H](Cc1ccc(O)cc1)NC(=O)[C@]1(C)CCCC=CC[C@]2(CCCN2C(C)=O)C(=O)N[C@@H](CC(C)C)C(=O)N[C@@H](CC(C)C)C(=O)N1 [PLL5-2, Ac-PL3-Leu-Leu-S5-Tyr-Leu-Leu-Asp-Asp-NHMe] (Ac-[X1]LL[S5]YLLDD-NHMe; staple 1-4)
[1]
  PAMPA Pe: 1.6 ± 0.1 (×10^−6) cm/sec
  % Retention: 97 ± 2%
[2]; [5]
  chromatographic logD: 1.7
In vitro
  Papp at 5 h: 1.6 ± 0.1 ×10⁻⁶ cm/s
ERβ LBD; binding towards the ERβ LBD
  EC50: 800 to 1300 nM

## CNC(=O)[C@H](CC(=O)O)NC(=O)[C@H](Cc1c[nH]cn1)NC(=O)[C@H](CC(C)C)NC(=O)[C@H](CC(C)C)NC(=O)[C@H](CCCNC(=N)N)NC(=O)[C@]1(C)CCCC=CC[C@]2(CCCN2C(C)=O)C(=O)N[C@@H](CC(C)C)C(=O)N[C@@H](CC(C)C)C(=O)N1 [PLL7-9, Ac-PL3-Leu-Leu-S5-Arg-Leu-Leu-His-Asp-NHMe] (Ac-[X1]LL[S5]RLLHD-NHMe; staple 1-4)
[1]
  PAMPA Pe: 1.1 ± 0.2 (×10^−6) cm/sec
  PAMPA Pe (text): exceeding 1 ×10^−6 cm/sec
  % Retention: 85 ± 4%
[2]; [5]
  chromatographic logD: 2.1
In vitro
  Papp at 5 h: 1.1 ± 0.2 ×10⁻⁶ cm/s
ERβ LBD; [6]
  EC50: 1300 ± 100 nM
ERβ LBD; binding towards the ERβ LBD
  EC50: 800 to 1300 nM

B1: PLL5-11 (Ac-PL3-Leu-Leu-S5-Tyr-Leu-Leu-His-NHMe) (peptide)
peptide: Ac-[PL3]LL[S5]YLLH-NHMe
modifications: staple 1-4; also: staple isomer 2, cis olefin
notes: Second-generation ProLock stapled peptide; X marks non-standard residues
[3]
  binding result: no binding (tested: peptide titrated 3-fold from 10 µM)

B2: PLL5-12 (Ac-PL3-Leu-Leu-S5-Tyr-Leu-Leu-Gln-NHMe) (peptide)
peptide: Ac-[PL3]LL[S5]YLLQ-NHMe
modifications: staple 1-4; also: staple isomer 2, cis olefin
notes: as for B1
[4]
  EC50: 2000 nM

B3: PLL5-1 (Ac-PL3-Leu-Leu-S5-Tyr-Leu-Leu-Asp-Tyr-NHMe) (peptide)
peptide: Ac-[PL3″]LL[S5]YLLDY-NHMe
modifications: staple 1-4; also: staple isomer 2, cis olefin
notes: as for B1
[4]
  EC50: 3900 nM

B4: PLL5-3 (Ac-PL3-Leu-Leu-S5-Tyr-Leu-Leu-Gln-Tyr-NHMe) (peptide)
peptide: Ac-[PL3]LL[S5]YLLQY-NHMe
modifications: staple 1-4; also: staple isomer 2, cis olefin
notes: as for B1
[4]
  EC50: 500 nM

B5: PLL5-2 (Ac-PL3-Leu-Leu-S5-Tyr-Leu-Leu-Asp-Asp-NHMe) (peptide)
peptide: Ac-[PL3]LL[S5]YLLDD-NHMe
modifications: staple 1-4; also: staple isomer 2, cis olefin
notes: as for B1
[4]
  EC50: 1200 nM

B6: PLL7-1 (Ac-PL3-Thr-Leu-S5-Tyr-Leu-Leu-Asp-Asp-NHMe) (peptide)
peptide: Ac-[PL3]TL[S5]YLLDD-NHMe
modifications: staple 1-4; also: staple isomer 2, cis olefin
notes: as for B1
[3]
  binding result: no binding (tested: peptide titrated 3-fold from 10 µM)

B7: PLL5-5 (Ac-PL3-Thr-Leu-S5-Tyr-Leu-Leu-Asp-NHMe) (peptide)
peptide: Ac-[PL3]TL[S5]YLLD-NHMe
modifications: staple 1-4; also: staple isomer 2, cis olefin
notes: as for B1
[3]
  binding result: no binding (tested: peptide titrated 3-fold from 10 µM)

B8: PLL5-6 (Ac-PL3-Lys-Leu-S5-Tyr-Leu-Leu-Asp-NHMe) (peptide)
peptide: Ac-[PL3]KL[S5]YLLD-NHMe
modifications: staple 1-4; also: staple isomer 2, cis olefin
notes: as for B1
[3]
  binding result: no binding (tested: peptide titrated 3-fold from 10 µM)

B9: PLL7-8 (Ac-PL3-Ala-Leu-S5-Tyr-Leu-Leu-Gln-Asp-NHMe) (peptide)
peptide: Ac-[PL3]AL[S5]YLLQD-NHMe
modifications: staple 1-4; also: staple isomer 2, cis olefin
notes: as for B1
[3]
  binding result: no binding (tested: peptide titrated 3-fold from 10 µM)

B10: PLL7-20 (Ac-PL3-Ala-Leu-S5-His-Leu-Leu-Asn-NHMe) (peptide)
peptide: Ac-[PL3]AL[S5]HLLN-NHMe
modifications: staple 1-4; also: staple isomer 2, cis olefin
notes: as for B1
[3]
  binding result: no binding (tested: peptide titrated 3-fold from 10 µM)
